According to ChEMBL document CHEMBL4052645, “Discovery of potent and efficacious pyrrolopyridazines as dual JAK1/3 inhibitors” (Bioorg Med Chem Lett, 2017):

Experiments:
[1] = target: G protein-coupled receptor kinase 4 (Homo sapiens) (UniProt P32298); test: Inhibition of wild-type human full length GPRK4 (M1 to C578 residues) expressed in bacterial expression system assessed as residual activity at 50 nM by Kinomescan method relative to control
[2] = target: Serine/threonine-protein kinase Nek5 (Homo sapiens) (UniProt Q6P3R8); test: Inhibition of wild-type human partial length NEK5 (M1 to M279 residues) expressed in bacterial expression system assessed as residual activity at 50 nM by Kinomescan method relative to control
[3] = target: Tyrosine-protein kinase Blk (Homo sapiens) (UniProt P51451); test: Inhibition of wild-type human partial length BLK (G211 to L503 residues) expressed in bacterial expression system assessed as residual activity at 50 nM by Kinomescan method relative to control
Tyrosine-protein kinase Blk (Homo sapiens), sequence (P51451 2-505 limits assumed): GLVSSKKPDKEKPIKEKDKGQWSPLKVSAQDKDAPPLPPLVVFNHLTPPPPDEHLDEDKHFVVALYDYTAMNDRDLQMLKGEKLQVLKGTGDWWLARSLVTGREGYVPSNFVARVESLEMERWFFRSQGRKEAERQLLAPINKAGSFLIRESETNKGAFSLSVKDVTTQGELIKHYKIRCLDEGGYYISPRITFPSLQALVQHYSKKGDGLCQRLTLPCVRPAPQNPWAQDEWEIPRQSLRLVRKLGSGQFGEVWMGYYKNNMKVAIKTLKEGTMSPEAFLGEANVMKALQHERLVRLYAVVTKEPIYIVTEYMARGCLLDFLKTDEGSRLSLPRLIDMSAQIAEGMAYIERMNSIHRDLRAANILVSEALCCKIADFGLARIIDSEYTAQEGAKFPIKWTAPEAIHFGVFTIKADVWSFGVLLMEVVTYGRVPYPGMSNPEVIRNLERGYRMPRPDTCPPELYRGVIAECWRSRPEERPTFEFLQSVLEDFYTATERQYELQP

[4] = target: Tyrosine-protein kinase receptor Tie-1 (Homo sapiens) (UniProt P35590); test: Inhibition of wild-type human partial length TIE1 (T819 to A1138 residues) expressed in bacterial expression system assessed as residual activity at 50 nM by Kinomescan method relative to control
[5] = target: Tyrosine-protein kinase receptor TYRO3 (Homo sapiens) (UniProt Q06418); test: Inhibition of wild-type human partial length TYRO3 (S497 to T814 residues) expressed in bacterial expression system assessed as residual activity at 50 nM by Kinomescan method relative to control
[6] = target: Receptor-interacting serine/threonine-protein kinase 2 (Homo sapiens) (UniProt O43353); test: Inhibition of wild-type human partial length RIPK2 (M1 to K310 residues) expressed in bacterial expression system assessed as residual activity at 50 nM by Kinomescan method relative to control
[7] = target: Serine/threonine-protein kinase 17B (Homo sapiens) (UniProt O94768); test: Inhibition of wild-type human full length DRAK2 (M1 to C372 residues) expressed in bacterial expression system assessed as residual activity at 50 nM by Kinomescan method relative to control
Serine/threonine-protein kinase 17B (Homo sapiens), sequence (O94768 whole entry, the tested form may be a part): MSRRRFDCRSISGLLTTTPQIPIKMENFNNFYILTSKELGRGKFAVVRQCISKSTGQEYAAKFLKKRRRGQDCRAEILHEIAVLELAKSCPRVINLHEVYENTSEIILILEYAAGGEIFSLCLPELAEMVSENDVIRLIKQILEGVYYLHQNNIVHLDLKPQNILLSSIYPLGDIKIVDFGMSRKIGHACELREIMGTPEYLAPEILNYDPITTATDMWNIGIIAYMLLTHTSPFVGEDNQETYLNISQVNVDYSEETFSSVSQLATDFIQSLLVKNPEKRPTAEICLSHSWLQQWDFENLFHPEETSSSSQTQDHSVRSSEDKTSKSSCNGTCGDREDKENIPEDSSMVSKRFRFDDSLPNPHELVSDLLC

[8] = target: Mitogen-activated protein kinase 13 (Homo sapiens) (UniProt O15264); test: Inhibition of wild-type human full length p38-delta (M1 to L365 residues) expressed in bacterial expression system assessed as residual activity at 50 nM by Kinomescan method relative to control
Mitogen-activated protein kinase 13 (Homo sapiens), sequence (O15264 whole entry, the tested form may be a part): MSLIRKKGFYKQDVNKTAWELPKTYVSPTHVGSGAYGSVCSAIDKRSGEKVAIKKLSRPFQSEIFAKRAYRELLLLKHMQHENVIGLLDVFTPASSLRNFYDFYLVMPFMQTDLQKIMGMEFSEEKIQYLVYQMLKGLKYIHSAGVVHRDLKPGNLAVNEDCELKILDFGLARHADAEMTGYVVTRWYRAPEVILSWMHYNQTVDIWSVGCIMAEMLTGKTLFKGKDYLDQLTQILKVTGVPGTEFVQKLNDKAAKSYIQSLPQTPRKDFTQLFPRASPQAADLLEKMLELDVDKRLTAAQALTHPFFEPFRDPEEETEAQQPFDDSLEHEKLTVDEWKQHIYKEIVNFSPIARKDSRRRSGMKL

[9] = target: Serine/threonine-protein kinase 32C (Homo sapiens) (UniProt Q86UX6); test: Inhibition of wild-type human partial length YANK3 (M68 to G486 residues) expressed in bacterial expression system assessed as residual activity at 50 nM by Kinomescan method relative to control
Serine/threonine-protein kinase 32C (Homo sapiens), sequence (Q86UX6 whole entry, the tested form may be a part): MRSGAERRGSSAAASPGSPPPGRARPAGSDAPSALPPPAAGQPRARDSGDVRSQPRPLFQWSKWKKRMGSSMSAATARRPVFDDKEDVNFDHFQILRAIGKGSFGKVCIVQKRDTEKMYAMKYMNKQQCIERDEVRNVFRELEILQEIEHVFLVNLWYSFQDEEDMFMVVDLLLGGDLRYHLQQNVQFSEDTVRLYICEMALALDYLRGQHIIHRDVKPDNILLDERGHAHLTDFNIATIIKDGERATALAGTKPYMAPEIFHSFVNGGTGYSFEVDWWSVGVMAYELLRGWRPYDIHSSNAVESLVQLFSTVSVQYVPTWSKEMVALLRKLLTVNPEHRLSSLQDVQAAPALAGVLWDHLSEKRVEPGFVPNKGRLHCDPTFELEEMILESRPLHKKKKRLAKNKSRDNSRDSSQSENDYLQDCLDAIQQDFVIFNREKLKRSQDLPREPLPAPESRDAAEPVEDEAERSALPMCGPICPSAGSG

[10] = target: Mitogen-activated protein kinase kinase kinase 3 (Homo sapiens) (UniProt Q99759); test: Inhibition of wild-type human partial length MAP3K3 (E320 to Y626 residues) expressed in mammalian expression system assessed as residual activity at 50 nM by Kinomescan method relative to control
[11] = target: Glycogen synthase kinase-3 beta (Homo sapiens) (UniProt P49841); test: Inhibition of wild-type human full length GSK3B (M1 to T433 residues) expressed in mammalian expression system assessed as residual activity at 50 nM by Kinomescan method relative to control
[12] = target: Serine/threonine-protein kinase PAK 4 (Homo sapiens) (UniProt O96013); test: Inhibition of wild-type human partial length PAK4 (Q144 to R438 residues) expressed in bacterial expression system assessed as residual activity at 50 nM by Kinomescan method relative to control
[13] = target: Protein kinase C epsilon type (Homo sapiens) (UniProt Q02156); test: Inhibition of wild-type human partial length PKCE (A378 to P737 residues) expressed in mammalian expression system assessed as residual activity at 50 nM by Kinomescan method relative to control
Protein kinase C epsilon type (Homo sapiens), sequence (Q02156 whole entry, the tested form may be a part): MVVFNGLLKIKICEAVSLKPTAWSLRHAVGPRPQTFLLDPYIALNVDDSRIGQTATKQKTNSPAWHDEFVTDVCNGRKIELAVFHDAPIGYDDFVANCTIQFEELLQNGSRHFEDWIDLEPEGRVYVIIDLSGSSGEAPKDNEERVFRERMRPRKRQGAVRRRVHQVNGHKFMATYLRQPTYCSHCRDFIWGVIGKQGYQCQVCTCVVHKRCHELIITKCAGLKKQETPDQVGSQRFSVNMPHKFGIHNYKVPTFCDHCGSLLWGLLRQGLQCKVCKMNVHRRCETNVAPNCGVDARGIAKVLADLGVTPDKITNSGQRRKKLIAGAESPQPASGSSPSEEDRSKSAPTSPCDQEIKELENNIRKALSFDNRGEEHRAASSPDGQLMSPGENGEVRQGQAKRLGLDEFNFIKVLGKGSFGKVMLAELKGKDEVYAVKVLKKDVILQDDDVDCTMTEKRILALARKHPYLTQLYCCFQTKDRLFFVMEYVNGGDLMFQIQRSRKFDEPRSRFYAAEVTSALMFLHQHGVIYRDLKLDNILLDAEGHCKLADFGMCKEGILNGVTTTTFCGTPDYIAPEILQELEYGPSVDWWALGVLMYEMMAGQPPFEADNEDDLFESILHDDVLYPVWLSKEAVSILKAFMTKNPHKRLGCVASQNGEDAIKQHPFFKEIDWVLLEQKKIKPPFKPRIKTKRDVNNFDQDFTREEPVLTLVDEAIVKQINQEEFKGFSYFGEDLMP

[14] = target: Dual specificity mitogen-activated protein kinase kinase 3 (Homo sapiens) (UniProt P46734); test: Inhibition of wild-type human full length MAP2K3 (M1 to S318 residues) expressed in mammalian expression system assessed as residual activity at 50 nM by Kinomescan method relative to control
[15] = target: Serine/threonine-protein kinase RIO1 (Homo sapiens) (UniProt Q9BRS2); test: Inhibition of full length human RIOK1 (M1 to K568 residues) expressed in bacterial expression system assessed as residual activity at 50 nM by KINOMEscan assay relative to control
Serine/threonine-protein kinase RIO1 (Homo sapiens), sequence (Q9BRS2 whole entry, the tested form may be a part): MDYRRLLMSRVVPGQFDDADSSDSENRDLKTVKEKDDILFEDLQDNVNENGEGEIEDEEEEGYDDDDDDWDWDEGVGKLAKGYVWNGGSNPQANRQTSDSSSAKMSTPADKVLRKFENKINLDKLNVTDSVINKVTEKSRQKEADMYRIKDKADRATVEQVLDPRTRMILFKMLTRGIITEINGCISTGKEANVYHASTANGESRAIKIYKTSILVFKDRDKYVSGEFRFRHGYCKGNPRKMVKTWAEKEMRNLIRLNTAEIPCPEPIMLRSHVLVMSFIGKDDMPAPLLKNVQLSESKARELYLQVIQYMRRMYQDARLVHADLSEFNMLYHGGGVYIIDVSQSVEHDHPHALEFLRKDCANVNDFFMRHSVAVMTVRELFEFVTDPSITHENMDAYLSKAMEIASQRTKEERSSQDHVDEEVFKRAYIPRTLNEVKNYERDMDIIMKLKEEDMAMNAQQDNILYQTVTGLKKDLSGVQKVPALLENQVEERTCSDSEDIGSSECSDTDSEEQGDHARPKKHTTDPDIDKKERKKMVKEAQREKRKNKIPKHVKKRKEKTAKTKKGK

[16] = target: Phosphatidylinositol 4-phosphate 5-kinase type-1 alpha (Homo sapiens) (UniProt Q99755); test: Inhibition of human PIP5K1A (M1 to H562 residues) expressed in bacterial expression system assessed as residual activity at 50 nM by KINOMEscan assay relative to control
[17] = target: Serine/threonine-protein kinase PRP4 homolog (Homo sapiens) (UniProt Q13523); test: Inhibition of wild-type human partial length PRP4 (D657 to I1007 residues) expressed in bacterial expression system assessed as residual activity at 50 nM by Kinomescan method relative to control
[18] = target: Non-receptor tyrosine-protein kinase TNK1 (Homo sapiens) (UniProt Q13470); test: Inhibition of wild-type human full length TNK1 (M1 to P661 residues) expressed in bacterial expression system assessed as residual activity at 50 nM by Kinomescan method relative to control
[19] = target: Serine/threonine-protein kinase D1 (Homo sapiens) (UniProt Q15139); test: Inhibition of wild-type human partial length PKD1 (G551 to E870 residues) expressed in bacterial expression system assessed as residual activity at 50 nM by Kinomescan method relative to control
Serine/threonine-protein kinase D1 (Homo sapiens), sequence (Q15139 whole entry, the tested form may be a part): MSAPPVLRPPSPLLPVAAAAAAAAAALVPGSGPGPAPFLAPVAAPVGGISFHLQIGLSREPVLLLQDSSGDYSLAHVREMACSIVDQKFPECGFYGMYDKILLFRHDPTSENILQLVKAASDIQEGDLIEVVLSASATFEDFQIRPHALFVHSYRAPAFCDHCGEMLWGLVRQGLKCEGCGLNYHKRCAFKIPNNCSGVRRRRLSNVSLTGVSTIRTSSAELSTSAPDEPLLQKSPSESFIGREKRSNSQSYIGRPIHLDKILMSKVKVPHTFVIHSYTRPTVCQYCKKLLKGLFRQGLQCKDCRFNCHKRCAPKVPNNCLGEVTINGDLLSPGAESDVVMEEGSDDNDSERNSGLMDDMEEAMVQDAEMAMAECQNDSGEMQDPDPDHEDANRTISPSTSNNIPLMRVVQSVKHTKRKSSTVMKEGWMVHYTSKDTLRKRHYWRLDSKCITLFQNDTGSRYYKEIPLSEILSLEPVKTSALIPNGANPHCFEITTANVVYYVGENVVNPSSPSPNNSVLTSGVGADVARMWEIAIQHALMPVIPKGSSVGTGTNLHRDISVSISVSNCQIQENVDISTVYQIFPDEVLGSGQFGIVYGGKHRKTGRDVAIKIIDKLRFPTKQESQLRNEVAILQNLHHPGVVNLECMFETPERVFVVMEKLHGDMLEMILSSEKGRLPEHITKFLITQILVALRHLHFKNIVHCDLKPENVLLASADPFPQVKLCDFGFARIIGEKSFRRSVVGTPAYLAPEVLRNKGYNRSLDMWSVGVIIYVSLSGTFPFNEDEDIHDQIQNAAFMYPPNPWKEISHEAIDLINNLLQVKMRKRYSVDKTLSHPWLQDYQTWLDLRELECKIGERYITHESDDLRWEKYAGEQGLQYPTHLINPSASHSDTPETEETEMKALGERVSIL

[20] = target: Serine/threonine-protein kinase PAK 2 (Homo sapiens) (UniProt Q13177); test: Inhibition of wild-type human partial length PAK2 (P151 to R525 residues) expressed in bacterial expression system assessed as residual activity at 50 nM by Kinomescan method relative to control
[21] = target: Serine/threonine-protein kinase MARK1 (Homo sapiens) (UniProt Q9P0L2); test: Inhibition of wild-type human partial length MARK1 (Q30 to T341 residues) expressed in bacterial expression system assessed as residual activity at 50 nM by Kinomescan method relative to control
Serine/threonine-protein kinase MARK1 (Homo sapiens), sequence (Q9P0L2 whole entry, looked up, the tested form may be a part): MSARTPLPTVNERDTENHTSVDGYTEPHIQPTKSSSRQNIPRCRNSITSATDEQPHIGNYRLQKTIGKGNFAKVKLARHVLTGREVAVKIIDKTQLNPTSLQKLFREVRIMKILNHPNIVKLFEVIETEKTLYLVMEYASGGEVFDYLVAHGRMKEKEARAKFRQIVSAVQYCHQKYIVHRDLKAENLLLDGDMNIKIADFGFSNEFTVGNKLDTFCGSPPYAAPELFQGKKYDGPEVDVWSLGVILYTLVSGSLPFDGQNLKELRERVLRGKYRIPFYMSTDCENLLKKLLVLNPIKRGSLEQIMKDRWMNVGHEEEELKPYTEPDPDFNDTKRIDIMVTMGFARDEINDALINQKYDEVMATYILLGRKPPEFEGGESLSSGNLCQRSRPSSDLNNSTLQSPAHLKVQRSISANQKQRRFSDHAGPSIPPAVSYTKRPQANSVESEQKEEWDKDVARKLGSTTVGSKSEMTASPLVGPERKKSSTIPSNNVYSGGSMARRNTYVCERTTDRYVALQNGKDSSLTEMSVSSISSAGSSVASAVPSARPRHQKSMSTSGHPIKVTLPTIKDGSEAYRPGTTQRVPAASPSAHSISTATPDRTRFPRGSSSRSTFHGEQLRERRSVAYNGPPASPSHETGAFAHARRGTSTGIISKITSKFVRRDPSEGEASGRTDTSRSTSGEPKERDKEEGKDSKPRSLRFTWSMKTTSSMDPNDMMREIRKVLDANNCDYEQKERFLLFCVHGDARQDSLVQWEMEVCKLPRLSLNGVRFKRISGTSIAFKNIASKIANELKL

[22] = target: Serine/threonine-protein kinase ULK2 (Homo sapiens) (UniProt Q8IYT8); test: Inhibition of wild-type human partial length ULK2 (M1 to S301 residues) expressed in mammalian expression system assessed as residual activity at 50 nM by Kinomescan method relative to control
[23] = target: Tyrosine-protein kinase ABL2 (Homo sapiens) (UniProt P42684); test: Inhibition of wild-type human ARG (A248 to G542 residues) expressed in bacterial expression system assessed as residual activity at 50 nM by Kinomescan method relative to control
[24] = target: Ephrin type-A receptor 4 (Homo sapiens) (UniProt P54764); test: Inhibition of wild-type human partial length EPHA4 (T601 to R897 residues) expressed in bacterial expression system assessed as residual activity at 50 nM by Kinomescan method relative to control
[25] = target: CDK4/Cyclin D3 (Homo sapiens) (UniProt P11802+P30281); test: Inhibition of wild-type human full length CDK4/cyclinD3 (M1 to E303 residues) expressed in mammalian expression system assessed as residual activity at 50 nM by Kinomescan method relative to control

| Structure (SMILES) | Activity [1] | Activity [2] | Activity [3] | Activity [4] | Activity [5] | Activity [6] | Activity [7] | Activity [8] | Activity [9] | Activity [10] | Activity [11] | Activity [12] | Activity [13] | Activity [14] | Activity [15] | Activity [16] | Activity [17] | Activity [18] | Activity [19] | Activity [20] | further results |
| --- | --- | --- | --- | --- | --- | --- | --- | --- | --- | --- | --- | --- | --- | --- | --- | --- | --- | --- | --- | --- | --- |
| CC1(C)[C@H](Nc2c(C(N)=O)cnn3cc(-c4ccccc4)cc23)CC[C@]1(C)N | 64% | 100% | 100% | 91% | 100% | 93% | 100% | 100% | 100% | 61% | 100% | 73% | 58% | 96% | 14% | 8.8% | 95% | 34% | 100% | 76% | Activity [21]: 99%; Activity [22]: 36%; Activity [23]: 91%; Activity [24]: 100%; Activity [25]: 100% |
| COc1ccc(-c2cc3c(N[C@@H]4CC[C@](C)(N)C4(C)C)c(C(N)=O)cnn3c2)cn1 | 100% | 100% | 95% | 97% | 89% | 100% | 100% | 100% | 100% | 71% | 86% | 86% | 72% | 92% | 69% | 17% | 97% | 92% | 96% | 77% | Activity [21]: 91%; Activity [22]: 75%; Activity [23]: 91%; Activity [24]: 100%; Activity [25]: 80% |
